This note sets out measurements from patent publication US20210113492A1, “METHOD FOR INHIBITING PROLIFERATION AND METASTASIS OF CANCER CELLS BY USING NAPHTHOQUINONE DERIVATIVE” (National Tsing Hua University, priority 2019, published 2021).

The target in this assay is T1, NQO1 (Homo sapiens, UniProt P15559).
T1 construct: endogenous in cells; host or cells: OC3-IV2 (human oral squamous cell carcinoma), cytosolic fraction / lysate supernatant
The assay can be described thus: NQO1 enzymatic activity assay (substrate reduction with NADH and WST1). It counts as biochemical. The following applies: cytosolic fractions of OC3-IV2 cells; isoplumbagin 5 μM and 10 μM, menadione 1X and 2X. Here is the method:
FIG. 4 proves that isoplumbagin is a substrate of NQO1. The cytosolic fractions of OC3-IV2 cells were used for the NQO1 enzymatic activity assay. The NQO1 enzyme activity was calculated by measuring the simultaneous reduction of menadione or isoplumbagin with cofactor NADH and WST1 (a highly sensitive tetrazolium reagent) which leads to increased absorbance at 450 nm. NQO1 activity assay kit (#ab184867) was purchased from Abcam (Cambridge, Mass., USA). OC3-IV2 cells were lysed with 1X extraction buffer containing 1 mM phenylmethylsulfonyl fluoride (PMSF) for 15 min on ice, and then centrifuged at 17,000×g at 4° C. for 20 min. The supernatant was collected and then the protein concentration of each sample was determined by BCA assays (Santa Cruz Biotechnology). Diluted sample and reaction buffer were added into 96-wells plate containing menadione (1X and 2X) or different concentrations of isoplumbagin (5 μM and 10 μM) with cofactor NADH and WST1. The absorbance of reduced WST1 was measured at 450 nm wavelengths by a spectrophotometer. Data from three independent experiments are presented as mean ±SEM (*P<0.05 compared with no substrate, paired Student's t-test).

T1 sequence (P15559 whole entry): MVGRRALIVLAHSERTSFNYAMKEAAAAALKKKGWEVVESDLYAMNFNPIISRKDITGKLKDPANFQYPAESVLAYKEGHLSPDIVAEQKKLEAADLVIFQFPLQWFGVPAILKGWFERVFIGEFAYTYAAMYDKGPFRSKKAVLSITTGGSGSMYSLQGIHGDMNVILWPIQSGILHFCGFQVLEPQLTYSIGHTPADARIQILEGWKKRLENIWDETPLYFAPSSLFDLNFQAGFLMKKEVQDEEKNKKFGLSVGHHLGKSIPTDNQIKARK

For `CC1=CC(=O)c2ccccc2C1=O` [menadione, reference compound], the “substrate of NQO1 (reduction with NADH and WST1, absorbance at 450 nm)” value is “substrates of NQO1”.
